Key:
Prothrombin = Prothrombin (Homo sapiens, UniProt P00734); test: Binding affinity towards thrombin obtained from human purified enzymes
Serine protease 1 = Serine protease 1 (Homo sapiens, UniProt P07477); test: Binding affinity towards trypsin obtained from human purified enzymes
Coagulation factor X = Coagulation factor X (Homo sapiens, UniProt P00742); test: Binding affinity towards human purified Coagulation factor Xa (FXa)
[1] = In vivo clearance (5 mg/kg) was determined in rabbits; assay type: ADME, organism-based, Oryctolagus cuniculus; details: rabbit
[2] = The plasma half life (5 mg/kg) was measured in rabbits; assay type: ADME, organism-based, Oryctolagus cuniculus; details: rabbit
Oryctolagus cuniculus = species on record: Oryctolagus cuniculus; test: Inhibitory activity against thrombus formation in rabbit using Arterio-Venous Shunt Thrombosis Model; assay type: functional

Sequence of Serine protease 1 (P07477 whole entry): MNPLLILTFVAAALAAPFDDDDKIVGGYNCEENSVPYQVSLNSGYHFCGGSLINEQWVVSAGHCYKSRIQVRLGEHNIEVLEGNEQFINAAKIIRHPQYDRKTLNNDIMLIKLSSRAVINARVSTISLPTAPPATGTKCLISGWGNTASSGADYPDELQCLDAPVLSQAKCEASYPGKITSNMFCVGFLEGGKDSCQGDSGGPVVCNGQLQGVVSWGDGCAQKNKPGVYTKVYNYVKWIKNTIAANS
Sequence of Coagulation factor X (P00742 41-179 limits assumed): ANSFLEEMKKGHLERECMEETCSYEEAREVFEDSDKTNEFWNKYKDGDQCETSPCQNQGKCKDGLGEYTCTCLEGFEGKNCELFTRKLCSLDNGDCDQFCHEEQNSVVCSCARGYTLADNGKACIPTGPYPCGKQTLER
Sequence of Coagulation factor X (P00742 235-488 limits assumed): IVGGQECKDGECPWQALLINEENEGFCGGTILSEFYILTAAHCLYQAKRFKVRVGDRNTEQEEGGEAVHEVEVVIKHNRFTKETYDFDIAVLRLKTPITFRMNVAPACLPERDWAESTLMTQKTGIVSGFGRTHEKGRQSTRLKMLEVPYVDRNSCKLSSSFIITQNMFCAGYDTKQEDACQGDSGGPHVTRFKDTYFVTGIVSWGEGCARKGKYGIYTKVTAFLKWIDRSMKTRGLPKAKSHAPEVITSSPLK

Row | Compound | Ki (Prothrombin) | Ki (Serine protease 1) | Ki (Coagulation factor X) | clearance [1] | half-life [2] | ID50 (Oryctolagus cuniculus)
1 | COCC1(C(=O)Nc2ccc(-c3ccccc3S(N)(=O)=O)cn2)CC(c2cccc(C(=N)N)c2)=NO1 (stereo not given) | 7400 nM | 45 nM | 2.5 nM | – | – | –
2 | CCS(=O)(=O)CC1(C(=O)Nc2ccc(-c3ccccc3S(N)(=O)=O)cc2)CC(c2cccc(C(=N)N)c2)=NO1 (stereo not given) | 2000 nM | 72 nM | 3.5 nM | – | – | –
3 | N=C(N)c1cccc(C2=NOC(Cn3cnnn3)(C(=O)Nc3ccc(-c4ccccc4S(N)(=O)=O)cc3)C2)c1 (stereo not given) [listing 1 of 2 here] | 400 nM | 45 nM | 0.52 nM | 5 mL/min/kg | 36 min | 0.035 µM/h/kg
4 | N=C(N)c1cccc(C2=NOC(Cc3ccccc3)(C(=O)Nc3ccc(-c4ccccc4S(N)(=O)=O)cc3)C2)c1 (stereo not given) | 1300 nM | 80 nM | 8.5 nM | – | – | –
5 | COCC1(C(=O)Nc2ncc(-c3ccccc3S(N)(=O)=O)cn2)CC(c2cccc(C(=N)N)c2)=NO1 (stereo not given) | 16000 nM | 390 nM | 9.9 nM | – | – | –
6 | N=C(N)c1cccc(C2=NOC(C(=O)Nc3ccc(-c4ccccc4S(N)(=O)=O)cc3)(C(F)(F)F)C2)c1 (stereo not given) | 6100 nM | 310 nM | 23 nM | – | – | –
7 | COCCC1(C(=O)Nc2ccc(-c3ccccc3S(N)(=O)=O)cc2)CC(c2cccc(C(=N)N)c2)=NO1 (stereo not given) | 4400 nM | 98 nM | 5 nM | – | – | –
8 | CC(C)OCC1(C(=O)Nc2ccc(-c3ccccc3S(N)(=O)=O)cc2)CC(c2cccc(C(=N)N)c2)=NO1 (stereo not given) | 4500 nM | 120 nM | 4.3 nM | – | – | –
9 | N=C(N)c1cccc(C2=NOC(Cn3cnnn3)(C(=O)Nc3ncc(-c4ccccc4S(N)(=O)=O)cn3)C2)c1 (stereo not given) [listing 1 of 2 here] | 7700 nM | 500 nM | 1.3 nM | – | – | –
10 | COCC1(C(=O)Nc2ccc(-c3ccccc3S(N)(=O)=O)cc2)CC(c2cccc(C(=N)N)c2)=NO1 (stereo not given) | 2400 nM | 70 nM | 3.4 nM | – | – | –
11 | CCSCC1(C(=O)Nc2ccc(-c3ccccc3S(N)(=O)=O)cn2)CC(c2cccc(C(=N)N)c2)=NO1 (stereo not given) | 2800 nM | 54 nM | 2.2 nM | – | – | –
12 | CCS(=O)(=O)CC1(C(=O)Nc2ncc(-c3ccccc3S(N)(=O)=O)cn2)CC(c2cccc(C(=N)N)c2)=NO1 (stereo not given) | 13000 nM | 290 nM | 5.3 nM | – | – | –
13 | CCOCC1(C(=O)Nc2ccc(-c3ccccc3S(N)(=O)=O)cn2)CC(c2cccc(C(=N)N)c2)=NO1 (stereo not given) [listing 1 of 2 here] | 5000 nM | 25 nM | 0.8 nM | 21.7 mL/min/kg | 36 min | 0.8 µM/h/kg
14 | CC(C)COCC1(C(=O)Nc2ccc(-c3ccccc3S(N)(=O)=O)cc2)CC(c2cccc(C(=N)N)c2)=NO1 (stereo not given) | 3900 nM | 140 nM | 37 nM | – | – | –
15 | N=C(N)c1cccc(C2=NOC(Cn3cncn3)(C(=O)Nc3ccc(-c4ccccc4S(N)(=O)=O)cc3)C2)c1 (stereo not given) | 3400 nM | 47 nM | 1.7 nM | – | – | –
16 | N=C(N)c1cccc(C2=NOC(Cn3cnnn3)(C(=O)Nc3ccc(-c4ccccc4S(N)(=O)=O)cn3)C2)c1 (stereo not given) [listing 1 of 2 here] | 1100 nM | 31 nM | 0.17 nM | – | – | –
17 | CCCOCC1(C(=O)Nc2ccc(-c3ccccc3S(N)(=O)=O)cc2)CC(c2cccc(C(=N)N)c2)=NO1 (stereo not given) | 4300 nM | 90 nM | 2.9 nM | – | – | –
18 | CC1(C(=O)Nc2ccc(-c3ccccc3S(N)(=O)=O)cn2)CC(c2cccc(C(=N)N)c2)=NO1 (stereo not given) | 8100 nM | 41 nM | 4.1 nM | – | – | –
19 | N=C(N)c1cccc(C2=NOC(C(=O)Nc3ccc(-c4ccccc4S(N)(=O)=O)cc3)C2)c1 (stereo not given) | 3900 nM | 83 nM | 7.2 nM | – | – | –
20 | N=C(N)c1cccc(C2=NOC(CC(=O)O)(C(=O)Nc3ccc(-c4ccccc4S(N)(=O)=O)cc3)C2)c1.O=C(O)C(F)(F)F (stereo not given) | > 21000 nM | 630 nM | 20 nM | 4.67 mL/min/kg | 94.2 min | >4.8 µM/h/kg

Row | Compound | Ki (Prothrombin) | Ki (Serine protease 1) | Ki (Coagulation factor X) | clearance [1] | half-life [2] | ID50 (Oryctolagus cuniculus)
21 | CNS(=O)(=O)c1ccccc1-c1ccc(NC(=O)C2(Cn3cnnn3)CC(c3cccc(C(=N)N)c3)=NO2)cc1 (stereo not given) | 100 nM | 49 nM | 0.92 nM | – | – | –
22 | CCOCC1(C(=O)Nc2ccc(-c3ccccc3S(N)(=O)=O)cc2)CC(c2cccc(C(=N)N)c2)=NO1 (stereo not given) [listing 1 of 2 here] | 2100 nM | 86 nM | 3.3 nM | 8.17 mL/min/kg | 37.8 min | 0.74 µM/h/kg
23 | N=C(N)c1cccc(C2=NOC(Cn3cnnn3)(C(=O)Nc3ccc(-c4ccccc4S(N)(=O)=O)cc3F)C2)c1 (stereo not given) | 500 nM | 110 nM | 0.44 nM | – | – | –
24 | Cc1cc(-c2ccccc2S(N)(=O)=O)ccc1NC(=O)C1(Cn2cnnn2)CC(c2cccc(C(=N)N)c2)=NO1 (stereo not given) | 300 nM | 200 nM | 1 nM | – | – | –
25 | COC(=O)CC1(C(=O)Nc2ccc(-c3ccccc3S(N)(=O)=O)cn2)CC(c2cccc(C(=N)N)c2)=NO1 (stereo not given) | 3900 nM | 52 nM | 2.3 nM | – | – | –
26 | CCSCC1(C(=O)Nc2ncc(-c3ccccc3S(N)(=O)=O)cn2)CC(c2cccc(C(=N)N)c2)=NO1 (stereo not given) | 10000 nM | 350 nM | 2.4 nM | – | – | –
27 | CCOCC1(C(=O)Nc2ccc(-c3ccccc3S(N)(=O)=O)cc2)CC(c2cccc(C(=N)N)c2)=NO1 (stereo not given) [listing 2 of 2 here] | 3100 nM | 70 nM | 3.5 nM | – | – | –
28 | COC(=O)CC1(C(=O)Nc2ccc(-c3ccccc3S(N)(=O)=O)cc2)CC(c2cccc(C(=N)N)c2)=NO1.O=C(O)C(F)(F)F (stereo not given) | 3100 nM | 110 nM | – | 3.5 mL/min/kg | 55.2 min | 0.6 µM/h/kg
29 | N=C(N)c1cccc(C2=NOC(Cn3cnnn3)(C(=O)Nc3ncc(-c4ccccc4S(N)(=O)=O)cn3)C2)c1 (stereo not given) [listing 2 of 2 here] | 3000 nM | 120 nM | 0.32 nM | – | – | –
30 | CCOCC1(C(=O)Nc2ccc(-c3ccccc3S(N)(=O)=O)cn2)CC(c2cccc(C(=N)N)c2)=NO1 (stereo not given) [listing 2 of 2 here] | 8400 nM | 40 nM | 2.8 nM | – | – | –
31 | CCS(=O)(=O)CC1(C(=O)Nc2ccc(-c3ccccc3S(N)(=O)=O)cn2)CC(c2cccc(C(=N)N)c2)=NO1 (stereo not given) | 5800 nM | 72 nM | 1.7 nM | – | – | –
32 | CCOCC1(C(=O)Nc2ncc(-c3ccccc3S(N)(=O)=O)cn2)CC(c2cccc(C(=N)N)c2)=NO1 (stereo not given) | > 21000 nM | 330 nM | 6.8 nM | – | – | –
33 | COC(=O)CC1(C(=O)Nc2ncc(-c3ccccc3S(N)(=O)=O)cn2)CC(c2cccc(C(=N)N)c2)=NO1 (stereo not given) | 14000 nM | 330 nM | 4.3 nM | – | – | –
34 | CC1(C(=O)Nc2ccc(-c3ccccc3S(N)(=O)=O)cc2)CC(c2cccc(C(=N)N)c2)=NO1 (stereo not given) | 5800 nM | 120 nM | 11 nM | – | – | –
35 | CCCNS(=O)(=O)c1ccccc1-c1ccc(NC(=O)C2(Cn3cnnn3)CC(c3cccc(C(=N)N)c3)=NO2)cc1 (stereo not given) | 70 nM | 49 nM | 2.1 nM | – | – | –
36 | N=C(N)c1cccc(C2=NOC(Cn3cnnn3)(C(=O)Nc3ccc(-c4ccccc4S(N)(=O)=O)cc3)C2)c1 (stereo not given) [listing 2 of 2 here] | 900 nM | 91 nM | 1.6 nM | – | – | –
37 | N=C(N)c1cccc(C2=NOC(Cn3cnnn3)(C(=O)Nc3ccc(-c4ccccc4S(N)(=O)=O)cc3Cl)C2)c1.O=C(O)C(F)(F)F (stereo not given) | 300 nM | 47 nM | 0.15 nM | 13.3 mL/min/kg | 48 min | 0.25 µM/h/kg
38 | N=C(N)c1cccc(C2=NOC(Cn3ncnn3)(C(=O)Nc3ccc(-c4ccccc4S(N)(=O)=O)cc3)C2)c1 (stereo not given) | 2900 nM | 91 nM | 1.6 nM | – | – | –
39 | N=C(N)c1cccc(C2=NOC(Cn3cnnn3)(C(=O)Nc3ccc(-c4ccccc4S(N)(=O)=O)cn3)C2)c1 (stereo not given) [listing 2 of 2 here] | 900 nM | 18 nM | 0.11 nM | 8.33 mL/min/kg | 42 min | 0.032 µM/h/kg
40 | CCCCOCC1(C(=O)Nc2ccc(-c3ccccc3S(N)(=O)=O)cc2)CC(c2cccc(C(=N)N)c2)=NO1 (stereo not given) | 4000 nM | 113 nM | 13 nM | – | – | –

Source: ChEMBL document CHEMBL1132652, “Design and synthesis of isoxazoline derivatives as factor Xa inhibitors. 2” (J Med Chem, 1999)
